Consider three compounds from patent US12108762B2, “Methods of controlling crop pests using aromatic amide insect repellents, methods of making aromatic amide insect repellents, and novel aromatic amide insect repellents” (priority 2020, dated 2024).

Data set [1] has as its system Drosophila melanogaster. In words: One-choice (single-trap) olfactory trap assay. The settings on record: for repellency compared with DEET, one-choice trap assay: 25 μl of 25% by weight in DMSO on filter paper, 10% ACV attractant, 6 hours (FIG. 10) and 24 hours (FIG. 13); for repellency / fly death during the 6-hour screen: 6 hours; for fly death during the 6-hour screen: starved flies. It counts as in vivo. On the procedure:
(§1) The D. melanogaster assays served as a model for SWD repellency. Forty different aromatic amides were studied at a 25% concentration by weight in DMSO, and the fruit fly chemosensory behaviors in response thereto were characterized. […]
(§2) Flies were monitored throughout their life cycle. Five-day-old flies (10 male and 10 females) were selected per assay, and starved for a predetermined length of time (e.g., 20 hours). After starvation, two different assays were used to study the olfactory related responses.
FIG. 7A is a diagram of a single-trap olfactory assay. Flies 105 were placed in a cylindrical chamber 100 containing a trap 110. The trap 110 was fashioned from an upturned 1.5 ml micro-centrifuge tube where the tapered end was trimmed away. A pipette tip 120 was cut to form a funnel and inserted into the bottom of the inverted micro-centrifuge tube 110. Then, filter paper 130 was placed between the pipette tip 120 and tip of micro-centrifuge tube 110. The pipette tip 120 was placed so that entering flies could not make physical contact with the filter paper 130. The filter paper 130 was placed in this manner so that when the filter paper 130 was treated with the repellent solution, the flies would only be able to smell at a distance and should be repelled even in the presence of an attractant.
A 25 μl sample of test compound at 25% concentration was applied to the filter paper 130 in order to provide the odor source. At the bottom of the trap 110, 125 μl of 10% apple cider vinegar (ACV) was placed as an attractant. Trials were conducted for 24 hours to visualize the number of flies 105 entering the trap 110. Typically, flies that entered the trap 110 contacted the liquid ACV and died in the ACV. Flies were counted and recorded at 4, 6, and 24 hours. No control other than DEET was used for this experiment, because it was a single trap, comparing the number of flies 105 repelled by the repellent versus the number of flies 105 interacting with the attractant (ACV).
(§3) The different assays assigned results as follows. For the single-choice olfactory assay, the numbers of flies were counted according to (1) those that entered the trap, (2) those that stayed outside the trap and lived, and (3) those that died outside the trap. For the two-choice olfactory assay, the numbers of flies were counted according to (1) those that entered the control trap, (2) those that entered the trap containing the repellent, (3) those that stayed outside of both traps and lived, and (4) those that died outside the traps. For the gustatory assay, the numbers of flies were counted according to those that had (1) a red-colored abdomen, (2) a blue-colored abdomen, (3) a purple abdomen, and (4) no added color to their abdomen. A nonparametric Mann-Whitney U test was used to compare the statistical differences between assays using DEET and the same assays using one of the present repellents for all trials.

The test system of data set [2] is Drosophila melanogaster. In words: Two-choice trap olfactory assay. It counts as in vivo. Particulars: for trap preference (control trap versus repellent-treated trap): DMSO control vs 25 μl of 25% by weight in DMSO. The procedure:
as §1, §2
FIG. 7B is a diagram of a 2-choice trap olfactory assay. Two ACV traps 110a-b were prepared as above, in a cylinder 150 from upturned 1.5 ml micro-centrifuge tubes with the tapered end trimmed away, and a pipette 120a-b inserted into the inverted micro-centrifuge tube. In the cylinder 150, one trap 110a was treated with 25 μl of DMSO (as a control) on the filter paper 135, and the other trap 110b with the 25 μl of the 25% by weight solution of the test compound in DMSO applied to the filter paper 130. 125 μl of 10% ACV, diluted with water, was placed in the bottom of the traps 110a-b. Both traps contained filter paper as prepared in the one-trap assay. All trials were screened for 24 hours, and the number of flies 105 in each trap was counted. Positions of the traps (i.e., left or right, relative to the location of the chamber 150 in the room) were randomized. The number of flies 105 in each trap 110a and 110b were counted and recorded at 4, 6 and 24 hours.
as §3

The test system of data set [3] is Drosophila melanogaster. In words: Habituation assay (prior exposure, then olfactory and gustatory screens). It is filed as in vivo. Particulars: for habituation of fruit flies, overall (olfactory and gustatory assays): post-exposure; for repellency after prior exposure, gustatory assay: prior exposure 25% by weight, gustatory screen at 5 mM. On the procedure: (§4) In the gustatory assay, the consumption of sugar (from a solution in a gel) treated at varying concentrations of the present repellent compounds was compared to the consumption of control-treated sugar. For the habituation assay, flies were tested over repeated exposures to the present repellent compounds to measure changes in behavioral preference for the compounds.
Flies were continuously monitored throughout their lifetime. In this assay, 3- to 5-day-old flies (70 male and 70 female) were selected and transferred to an empty fly food container 320 (FIG. 9). The polystyrene foam cap 310 was treated with 50 μL of 25% by weight of the present aromatic amide repellent in DMSO. A thin porous material 330 was placed around the treated cap 310, with a gap between the cap 310 and the material 330 so that the flies cannot touch the treated cap 310, but can only smell it. […] After the 20-hour period, the flies were screened in the olfactory assay and gustatory assays above. In the olfactory assay, the number of flies in the trap, the number of flies outside the trap, and the number of flies that died outside the trap were counted as described herein, and in the gustatory assay, the color of the flies' abdomens were determined and counted, as described herein.
as §3

A further data set has as its target T1, Or83b (Drosophila melanogaster, UniProt Q9VNB5).
T1 construct: endogenous in cells; host or cells: whole living fruit flies (behavioural olfactory assays)
T1 sequence (Q9VNB5 1-486): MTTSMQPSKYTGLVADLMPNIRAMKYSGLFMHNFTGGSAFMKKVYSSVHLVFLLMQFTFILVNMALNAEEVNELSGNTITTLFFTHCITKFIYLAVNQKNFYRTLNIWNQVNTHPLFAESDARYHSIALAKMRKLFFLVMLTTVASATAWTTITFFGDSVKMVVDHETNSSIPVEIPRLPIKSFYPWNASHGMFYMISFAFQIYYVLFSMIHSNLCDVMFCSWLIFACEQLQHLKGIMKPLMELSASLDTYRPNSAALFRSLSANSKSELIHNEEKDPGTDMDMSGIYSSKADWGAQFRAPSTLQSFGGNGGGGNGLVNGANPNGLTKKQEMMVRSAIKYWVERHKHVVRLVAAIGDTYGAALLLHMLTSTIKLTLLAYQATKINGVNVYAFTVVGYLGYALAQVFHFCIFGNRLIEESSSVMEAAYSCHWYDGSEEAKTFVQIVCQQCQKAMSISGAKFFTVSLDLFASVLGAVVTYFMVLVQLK
In words: Olfactory assays with receptor-modified (Or83b knockdown) flies. It is filed as in vivo, fruit flies. Particulars: for effectiveness with receptor-modified flies, one-choice trap olfactory assay: compared with assays with unmodified flies; for Or83b and Gr33a requirement for detection of the compound: fruit flies; for Or83b and Gr33a requirement for detection of the compound / effectiveness as repellent with Or83b-modified flies above the knockdown temperature: olfactory assays; for effectiveness as repellent with Or83b-modified flies above the knockdown temperature: compared with unmodified flies. On the procedure: (§5) The neurophysiological mechanisms of repellency were analyzed using receptors that are essential for DEET detection, Or83b and Gr33a. […] These receptors also play a role in the repellency of the most promising of the present aromatic amide compounds.

In the next data set the target is T2, Gr33a (Drosophila melanogaster, UniProt Q9VKA5).
T2 construct: endogenous in cells; host or cells: whole living fruit flies (behavioural gustatory assay)
T2 sequence (Q9VKA5 1-475): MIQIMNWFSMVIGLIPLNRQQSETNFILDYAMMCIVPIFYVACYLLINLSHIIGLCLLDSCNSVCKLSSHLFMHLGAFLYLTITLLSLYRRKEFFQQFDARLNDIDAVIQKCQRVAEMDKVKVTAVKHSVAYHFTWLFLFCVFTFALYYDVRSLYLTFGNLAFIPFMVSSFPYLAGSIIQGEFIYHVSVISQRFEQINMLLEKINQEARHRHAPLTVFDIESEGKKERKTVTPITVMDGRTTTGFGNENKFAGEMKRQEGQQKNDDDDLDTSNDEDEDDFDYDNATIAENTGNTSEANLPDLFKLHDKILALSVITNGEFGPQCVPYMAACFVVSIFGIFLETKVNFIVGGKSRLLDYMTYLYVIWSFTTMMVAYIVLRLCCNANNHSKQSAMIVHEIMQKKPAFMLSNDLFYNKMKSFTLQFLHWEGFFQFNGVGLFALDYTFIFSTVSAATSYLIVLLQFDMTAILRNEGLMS
In words: Gustatory assay with receptor-modified (Gr33a knockdown) flies. It is filed as in vivo, fruit flies. On the procedure: as §5

Data set [4] deals with Drosophila melanogaster. In words: Gustatory assay (fructose preference, food colouring). It counts as in vivo. Particulars: 1 hour feeding. On the procedure: The D. melanogaster assays served as a model for SWD repellency. Forty different aromatic amides were studied at a 25% concentration by weight in DMSO, and the fruit fly chemosensory behaviors in response thereto were characterized.
as §4
Flies were continuously monitored throughout their lifecycle. In doing so, 3- to 5-day-old flies (half male and half female) were selected and starved for 20 hours. Flies were then introduced to 96-well plates 200 with wells 210a-220vv that were alternately filled with two different sugar solutions, as shown in FIG. 8. Wells 210a-210vv were filled with 25 mM fructose in DMSO (as a control), colored with red food coloring, and wells 220a-220vv were filled with […] fructose mixed with 5 mM of the present insect repellent in DMSO, colored with blue food coloring. The food coloring is nontoxic, so it has no effect on preference. Using an established protocol (Montell, C., et al., Avoiding DEET through insect gustatory receptors. NIH Neuron 67(4), 2010, 555-561: doi:10.1016/j.neuron.2010.07.006), flies selected between the fructose control or fructose mixed with aromatic amide repellent. Tests were performed on at least one group of about 50 males and at least one group of 50 females. Flies were placed in the dark for 1 hour, then the food coloring in the fly's abdomen was visualized under a compound microscope. The color of the abdomen was noted, along with the intensity, providing a quantitative idea of how much sugar each fly consumed, and from which type of well (control vs. mixed with repellent). The flies were fed for one hour so that the amount of food coloring was significant enough to be visible. A preference index was made to define the amount of food coloring consumed and assess the degree of repellent avoidance via gustatory processes.
as §3

Where [5] appears, read: one-choice trap, 25% concentration.

For `O=C(c1cccc(F)c1)N1CCCC1` [Compound 2mB, N-[m-fluorobenzoyl]pyrrolidine], the “repellency compared with DEET, one-choice trap assay” value in the data set with Drosophila melanogaster [1] was “more effective than DEET”. For the same compound, in the data set with Drosophila melanogaster [1] (setting [5]), the “aversion (no flies entering the single-choice trap)” value turned out to be 100%, the “ranking among repellents in the one-choice assay” value is reported as “most effective repellents”, the repellency result was “significant repellency” and the “fly death during the 6-hour screen” value is given as “no fly death”. For the same compound, the “average number of flies that chose a trap in 6 hours” value in the data set on Drosophila melanogaster [2] (25% by weight, 20 flies per assay, 6 hours) is reported as 4 flies. The “participation in choosing either trap” value with Drosophila melanogaster [2] (25% by weight, 6 hours) is given as “less overall participation”. Moreover, the “trap preference (control trap versus repellent-treated trap)” value in the data set on Drosophila melanogaster [2] (6 hours) is “preference for the control trap”. Also, in the data set with Drosophila melanogaster [3], the “habituation of fruit flies, overall (olfactory and gustatory assays)” value is “demonstrated habituation in at least one assay”; the “repellency after prior exposure, gustatory assay” value is listed as “significantly less repellency”. The “repellency after prior exposure, one-choice trap olfactory assay” value with Drosophila melanogaster [3] (prior exposure to 25% by weight repellent for 20 hours, compared with earlier assay) was “worse at repelling insects after prior exposure”. Further, on Or83b, the “effectiveness with receptor-modified flies, one-choice trap olfactory assay” value is listed as “significantly less effective”; the “Or83b and Gr33a requirement for detection of the compound” value is recorded as “required”; the “effectiveness as repellent with Or83b-modified flies above the knockdown temperature” value is on record as “significantly less effective”; the “preference of receptor-modified flies for the compound, olfactory assays” value is reported as “much higher preference”. Moreover, at Gr33a (compared with unmodified flies), the “effectiveness with receptor-modified flies, gustatory assay” value was “significantly less effective”. For the same compound, the “preference for repellent-treated food source post-knockdown, gustatory assay” value on Gr33a is “increased preference”.

As for `CN1CCN(C(=O)c2ccccc2F)CC1` [Compound 2oE, 1-methyl-4-[o-fluorobenzoyl]piperazine], the “repellency compared with DEET, one-choice trap assay” value in the data set with Drosophila melanogaster [1] was “more effective than DEET”. For the same compound, in the data set with Drosophila melanogaster [1] (setting [5]), the “ranking among repellents in the one-choice assay” value is “most effective repellents” and the “fly death during the 6-hour screen” value is recorded as “some fly death”. Further, in the data set on Drosophila melanogaster [1] (one-choice trap, 25% concentration, exposure in the gas phase), the fly mortality entry is reported as “relatively insignificant”. Besides, the “participation in choosing either trap” value in the data set with Drosophila melanogaster [2] (25% by weight, 6 hours) was “less overall participation”. Further, the “interaction with control trap in comparison with repellent-treated trap” value in the data set with Drosophila melanogaster [2] (25% by weight, low participation) is “more flies interacted with the control trap”. The “trap preference (control trap versus repellent-treated trap)” value in the data set with Drosophila melanogaster [2] (6 hours) was “preference for the control trap”. Besides, in the data set with Drosophila melanogaster [3], the “habituation of fruit flies, overall (olfactory and gustatory assays)” value was “unable to habituate”; the “repellency after prior exposure, gustatory assay” value is reported as “statistically similar results”. For the same compound, on Or83b, the “effectiveness with receptor-modified flies, one-choice trap olfactory assay” value is “less effective, but statistically similar”; the “Or83b and Gr33a requirement for detection of the compound” value is “required”; the “effectiveness as repellent with Or83b-modified flies above the knockdown temperature” value is given as “significantly less effective”; the “preference of receptor-modified flies for the compound, olfactory assays” value is reported as “much higher preference”. In addition, on Gr33a, the “preference for repellent-treated food source post-knockdown, gustatory assay” value is “increased preference”.

Regarding `O=C(c1cccc(C(F)(F)F)c1)N1CCCCC1` [Compound 3mC], the “repellency compared with DEET, one-choice trap assay” value in the data set on Drosophila melanogaster [1] is on record as “more effective than DEET”. In the data set on Drosophila melanogaster [1] (setting [5]), the repellency entry is on record as “significant repellency” and the “fly death during the 6-hour screen” value was “no fly death”. Further, the “participation in choosing either trap” value in the data set with Drosophila melanogaster [2] (25% by weight, 6 hours) is “less overall participation”. In addition, the “trap preference (control trap versus repellent-treated trap)” value in the data set with Drosophila melanogaster [2] (6 hours) is on record as “preference for the control trap”. Also, the “gustatory repellency compared with DEET” value in the data set on Drosophila melanogaster [4] (5 mM repellent, FIG. 12) is listed as “significantly worse than DEET”. The “gustatory repellency (preference for repellent-treated sugar versus control-treated sugar)” value in the data set on Drosophila melanogaster [4] (35 mM fructose with 5 mM repellent vs 25 mM fructose control) is reported as “act as a gustatory repellent”.
